Reference: BigSolDB 2.1

C=CC(=O)NC(C)(C)CC(C)=O
Conditions	solubility (mole fraction)
in 2-butanone, 272.05 K	0.229
in 2-butanone, 278.25 K	0.276
in 2-butanone, 283.25 K	0.321
in 2-butanone, 288.45 K	0.373
in 2-butanone, 293.35 K	0.424
in 2-butanone, 298.15 K	0.484
in 2-butanone, 303.25 K	0.551
in 2-butanone, 308.15 K	0.623
in 2-butanone, 313.15 K	0.704
in 2-butanone, 318.15 K	0.79
in 2-butanone, 323.15 K	0.88
in 2-pentanone, 272.05 K	0.2
in 2-pentanone, 278.25 K	0.245
in 2-pentanone, 283.25 K	0.285
in 2-pentanone, 288.45 K	0.334
in 2-pentanone, 293.35 K	0.385
in 2-pentanone, 298.15 K	0.442
in 2-pentanone, 303.25 K	0.509
in 2-pentanone, 308.15 K	0.581
in 2-pentanone, 313.15 K	0.658
in 2-pentanone, 318.15 K	0.747
in 2-pentanone, 323.15 K	0.844
in acetone, 272.05 K	0.207
in acetone, 278.25 K	0.252
in acetone, 283.25 K	0.294
in acetone, 288.45 K	0.342
in acetone, 293.35 K	0.394
in acetone, 298.15 K	0.45
in acetone, 303.25 K	0.515
in acetone, 308.15 K	0.584
in acetone, 313.15 K	0.66
in acetone, 318.15 K	0.746
in acetone, 323.15 K	0.839
in ethanol, 272.15 K	0.186
in ethanol, 278.25 K	0.231
in ethanol, 283.15 K	0.271
in ethanol, 288.15 K	0.318
in ethanol, 293.35 K	0.374
in ethanol, 297.65 K	0.427
in ethanol, 303.15 K	0.5
in ethanol, 308.15 K	0.576
in ethanol, 313.65 K	0.671
in ethanol, 318.85 K	0.767
in ethanol, 323.65 K	0.867
in ethyl acetate, 272.05 K	0.166
in ethyl acetate, 278.25 K	0.208
in ethyl acetate, 283.25 K	0.249
in ethyl acetate, 288.45 K	0.299
in ethyl acetate, 293.35 K	0.351
in ethyl acetate, 298.15 K	0.411
in ethyl acetate, 303.25 K	0.481
in ethyl acetate, 308.15 K	0.558
in ethyl acetate, 313.15 K	0.645
in ethyl acetate, 318.15 K	0.745
in ethyl acetate, 323.15 K	0.85
in ethyl formate, 272.05 K	0.186
in ethyl formate, 278.25 K	0.23
in ethyl formate, 283.25 K	0.271
in ethyl formate, 288.45 K	0.321
in ethyl formate, 293.35 K	0.376
in ethyl formate, 298.15 K	0.435
in ethyl formate, 303.25 K	0.506
in ethyl formate, 308.15 K	0.575
in ethyl formate, 313.15 K	0.659
in ethyl formate, 318.15 K	0.754
in ethyl formate, 323.15 K	0.859
in isobutanol, 272.05 K	0.212
in isobutanol, 278.25 K	0.258
in isobutanol, 283.25 K	0.301
in isobutanol, 288.45 K	0.351
in isobutanol, 293.35 K	0.403
in isobutanol, 298.15 K	0.462
in isobutanol, 303.25 K	0.529
in isobutanol, 308.15 K	0.601
in isobutanol, 313.15 K	0.68
in isobutanol, 318.15 K	0.767
in isobutanol, 323.15 K	0.866
in isopentanol, 272.15 K	0.154
in isopentanol, 278.25 K	0.197
in isopentanol, 283.15 K	0.24
in isopentanol, 288.15 K	0.29
in isopentanol, 293.35 K	0.352
in isopentanol, 297.65 K	0.411
in isopentanol, 303.15 K	0.495
in isopentanol, 308.15 K	0.585
in isopentanol, 313.65 K	0.7
in isopentanol, 318.85 K	0.82
in isopentanol, 323.65 K	0.955
in isopropanol, 272.15 K	0.155
in isopropanol, 278.25 K	0.197
in isopropanol, 283.15 K	0.238
in isopropanol, 288.15 K	0.286
in isopropanol, 293.35 K	0.343
in isopropanol, 297.65 K	0.398
in isopropanol, 303.15 K	0.479
in isopropanol, 308.15 K	0.562
in isopropanol, 313.65 K	0.667
in isopropanol, 318.85 K	0.777
in isopropanol, 323.65 K	0.898
in methanol, 272.15 K	0.241
in methanol, 278.25 K	0.287
in methanol, 283.15 K	0.327
in methanol, 288.15 K	0.371
in methanol, 293.35 K	0.422
in methanol, 297.65 K	0.468
in methanol, 303.15 K	0.531
in methanol, 308.15 K	0.594
in methanol, 313.65 K	0.667
in methanol, 318.85 K	0.746
in methanol, 323.65 K	0.823
in methyl acetate, 272.05 K	0.206
in methyl acetate, 278.25 K	0.253
in methyl acetate, 283.25 K	0.294
in methyl acetate, 288.45 K	0.343
in methyl acetate, 293.35 K	0.399
in methyl acetate, 298.15 K	0.455
in methyl acetate, 303.25 K	0.526
in methyl acetate, 308.15 K	0.6
in methyl acetate, 313.15 K	0.68
in methyl acetate, 318.15 K	0.769
in methyl acetate, 323.15 K	0.869
in n-butanol, 272.15 K	0.169
in n-butanol, 278.25 K	0.213
in n-butanol, 283.15 K	0.253
in n-butanol, 288.15 K	0.303
in n-butanol, 293.35 K	0.362
in n-butanol, 297.65 K	0.417
in n-butanol, 303.15 K	0.496
in n-butanol, 308.15 K	0.579
in n-butanol, 313.65 K	0.681
in n-butanol, 318.85 K	0.793
in n-butanol, 323.65 K	0.908
in n-hexanol, 272.15 K	0.151
in n-hexanol, 278.25 K	0.194
in n-hexanol, 283.15 K	0.236
in n-hexanol, 288.15 K	0.286
in n-hexanol, 293.35 K	0.346
in n-hexanol, 297.65 K	0.406
in n-hexanol, 303.15 K	0.491
in n-hexanol, 308.15 K	0.581
in n-hexanol, 313.65 K	0.696
in n-hexanol, 318.85 K	0.82
in n-hexanol, 323.65 K	0.953
in n-pentanol, 272.15 K	0.148
in n-pentanol, 278.25 K	0.189
in n-pentanol, 283.15 K	0.229
in n-pentanol, 288.15 K	0.276
in n-pentanol, 293.35 K	0.336
in n-pentanol, 297.65 K	0.391
in n-pentanol, 303.15 K	0.469
in n-pentanol, 308.15 K	0.553
in n-pentanol, 313.65 K	0.66
in n-pentanol, 318.85 K	0.775
in n-pentanol, 323.65 K	0.896
in n-propanol, 272.15 K	0.18
in n-propanol, 278.25 K	0.226
in n-propanol, 283.15 K	0.269
in n-propanol, 288.15 K	0.32
in n-propanol, 293.35 K	0.381
in n-propanol, 297.65 K	0.437
in n-propanol, 303.15 K	0.52
in n-propanol, 308.15 K	0.605
in n-propanol, 313.65 K	0.71
in n-propanol, 318.85 K	0.819
in n-propanol, 323.65 K	0.937
